Results on eleven compounds are retold here after patent US20250197406A1, “INDAZOLES AS HEMATOPOIETIC PROGENITOR KINASE 1 (HPK1) INHIBITORS AND METHODS FOR USING SAME” (1ST Biotherapeutics, Inc., priority 2022, published 2025).

SMILES strings stand for the structures. Bounds are passed on as bounds.

recombinant human HPK1, sequence (Q92918 whole entry): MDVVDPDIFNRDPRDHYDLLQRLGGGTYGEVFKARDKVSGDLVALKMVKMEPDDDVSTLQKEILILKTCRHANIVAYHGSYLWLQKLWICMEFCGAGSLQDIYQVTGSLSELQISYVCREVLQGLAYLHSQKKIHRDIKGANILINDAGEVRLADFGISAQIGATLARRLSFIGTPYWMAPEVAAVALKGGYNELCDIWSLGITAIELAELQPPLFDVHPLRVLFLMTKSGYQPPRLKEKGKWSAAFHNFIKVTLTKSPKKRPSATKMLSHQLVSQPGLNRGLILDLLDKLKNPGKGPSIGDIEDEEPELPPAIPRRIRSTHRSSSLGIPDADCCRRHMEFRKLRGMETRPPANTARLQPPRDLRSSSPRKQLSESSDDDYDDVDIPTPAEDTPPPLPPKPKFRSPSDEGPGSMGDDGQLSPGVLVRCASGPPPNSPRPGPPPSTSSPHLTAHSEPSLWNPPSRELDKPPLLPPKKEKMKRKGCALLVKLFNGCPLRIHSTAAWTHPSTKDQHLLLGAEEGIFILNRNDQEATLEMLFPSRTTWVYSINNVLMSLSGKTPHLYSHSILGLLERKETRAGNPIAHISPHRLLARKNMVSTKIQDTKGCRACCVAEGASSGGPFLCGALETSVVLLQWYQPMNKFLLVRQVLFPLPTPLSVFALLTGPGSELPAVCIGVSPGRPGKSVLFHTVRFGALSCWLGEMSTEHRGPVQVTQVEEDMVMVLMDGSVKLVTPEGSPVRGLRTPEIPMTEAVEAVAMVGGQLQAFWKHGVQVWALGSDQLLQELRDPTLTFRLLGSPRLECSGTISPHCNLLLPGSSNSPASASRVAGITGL

In the test the target is recombinant human HPK1 (Homo sapiens (Human), UniProt Q92918). Put plainly: HPK1 kinase assay (Promega ADP-Glo kinase assay). Format: biochemical. The settings on record: In vitro activity against HPK1, 5 ng HPK1, MBP substrate, ATP 25 μM, 30° C. 40 minutes. A digest of the protocol:
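ADP-Glo luminescence assay with 5 ng recombinant human HPK1, MBP substrate and ATP (added as 25 µM solution) in Tris pH 7.5, 20 mM MgCl2, BSA, DTT, 0.5% DMSO. Reaction ran 40 min at 30 °C. IC50 was fitted from percent inhibition over an inhibitor concentration range.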
Background: ADP-Glo turns the ADP formed in a reaction into a luminescent signal.
As a reminder, the IC50 is the concentration needed to halve the response being measured. Turning to `CC(C)N(c1c(F)c(Cl)c(-c2cn3cc(NC(=O)[C@@H]4C[C@@H]4F)nc3cn2)c2cn[nH]c12)C1OC(C(=O)O)C(O)C(O)C1O` (stereo partly drawn) [Example 14, 6-((5-chloro-6-fluoro-4-(2-((1S,2S)-2-fluorocyclopropane-1-carboxamido)imidazo[1,2-a]pyrazin-6-yl)-1H-indazol-7-yl)(isopropyl)amino)-3,4,5-trihydroxytetrahydro-2H-pyran-2-carboxylic acid], the IC50 is less than 100 nM.

With `CCOC(=O)Nc1cn2cc(-c3c(Cl)c(F)c(NC(C)C)c4[nH]ncc34)ncc2n1` [Example 114, ethyl (6-(5-chloro-6-fluoro-7-(isopropylamino)-1H-indazol-4-yl)imidazo[1,2-a]pyrazin-2-yl)carbamate], the IC50 was less than 100 nM.

Take `CC(C)Nc1c(F)c(Cl)c(-c2cn3cc(NC(=O)C(F)(F)F)nc3cn2)c2cn[nH]c12` [Example 66, N-(6-(5-chloro-6-fluoro-7-(isopropylamino)-1H-indazol-4-yl)imidazo[1,2-a]pyrazin-2-yl)-2,2,2-trifluoroacetamide]: the IC50 was less than 100 nM.

For the compound `CC(N[S+]([O-])C(C)(C)C)c1c(F)c(C(F)(F)F)c(-c2cn3cc(NC(=O)[C@@H]4C[C@@H]4F)nc3cn2)c2cn[nH]c12` (stereo partly drawn) [Example 87, (1S,2S)-N-(6-(7-(1-((tert-butylsulfinyl)amino)ethyl)-6-fluoro-5-(trifluoromethyl)-1H-indazol-4-yl)imidazo[1,2-a]pyrazin-2-yl)-2-fluorocyclopropane-1-carboxamide], the IC50 was less than 100 nM.

Regarding `CC(=O)NCC(C)c1c(F)c(C(F)(F)F)c(-c2cn3cc(NC(=O)[C@@H]4C[C@@H]4F)nc3cn2)c2cn[nH]c12` (stereo partly drawn) [Example 99, (1S,2S)-N-(6-(7-(1-acetamidopropan-2-yl)-6-fluoro-5-(trifluoromethyl)-1H-indazol-4-yl)imidazo[1,2-a]pyrazin-2-yl)-2-fluorocyclopropane-1-carboxamide], the IC50 is less than 100 nM.

In the case of `CC(C)Nc1c(F)c(C(=O)O)c(-c2cn3cc(NC(=O)[C@@H]4C[C@@H]4F)nc3cn2)c2cn[nH]c12` [Example 73, 6-fluoro-4-(2-((1S,2S)-2-fluorocyclopropane-1-carboxamido)imidazo[1,2-a]pyrazin-6-yl)-7-(isopropylamino)-1H-indazole-5-carboxylic acid], the IC50 lay within 501 to 1000 nM.

On to `CC(=O)NC(c1c(F)c(C)c(-c2cn3cc(NC(=O)[C@@H]4C[C@@H]4F)nc3cn2)c2cn[nH]c12)C1CC1` (stereo partly drawn) [Example 42, (1S,2S)-N-(6-(7-(acetamido(cyclopropyl)methyl)-6-fluoro-5-methyl-1H-indazol-4-yl)imidazo[1,2-a]pyrazin-2-yl)-2-fluorocyclopropane-1-carboxamide], for which the IC50 was less than 100 nM.

With `CC(C)(C)[S+]([O-])NC(c1c(F)c(C(F)(F)F)c(-c2cn3cc(NC(=O)[C@@H]4C[C@@H]4F)nc3cn2)c2cn[nH]c12)C1CC1` (stereo partly drawn) [Example 97, (1S,2S)-N-(6-(7-(((tert-butylsulfinyl)amino)(cyclopropyl)methyl)-6-fluoro-5-(trifluoromethyl)-1H-indazol-4-yl)imidazo[1,2-a]pyrazin-2-yl)-2-fluorocyclopropane-1-carboxamide], the IC50 was less than 100 nM.

As to `CCN(CC)C(=O)[C@H]1C[C@H]1C(=O)Nc1cn2cc(-c3c(Cl)c(F)c(NC(C)C)c4[nH]ncc34)ncc2n1` [Example 26, (1R,2S)-N1-(6-(5-chloro-6-fluoro-7-(isopropylamino)-1H-indazol-4-yl)imidazo[1,2-a]pyrazin-2-yl)-N2,N2-diethylcyclopropane-1,2-dicarboxamide], the IC50 was less than 100 nM.

Consider `CCNC(=O)Nc1cn2cc(-c3c(Cl)c(F)c(NC(C)C)c4[nH]ncc34)ncc2n1` [Example 119, 1-(6-(5-chloro-6-fluoro-7-(isopropylamino)-1H-indazol-4-yl)imidazo[1,2-a]pyrazin-2-yl)-3-ethylurea], for which the half-maximal inhibitory concentration (IC50) was less than 100 nM.

As for `Cc1c(F)c(C(C)N2C(=O)c3ccccc3C2=O)c2[nH]ncc2c1-c1cn2cc(NC(=O)[C@@H]3C[C@@H]3F)nc2cn1` (stereo partly drawn) [Example 68, (1S,2S)-N-(6-(7-(1-(1,3-dioxoisoindolin-2-yl)ethyl)-6-fluoro-5-methyl-1H-indazol-4-yl)imidazo[1,2-a]pyrazin-2-yl)-2-fluorocyclopropane-1-carboxamide], the IC50 was 101 to 500 nM.
